Experiments:
[1] = test system: p53-wild-type SJSA-1 and U-2 OS cells; conditions: 24 h treatment, nutlin-3a 5 μM positive control
[2] = test system: HCT 116 cells; assay: FITC-Annexin V/propidium iodide apoptosis analysis; conditions: HCT 116 (p53-wild-type); 72 h; Annexin V/PI flow cytometry
[3] = target: human MDM2 (residues 1–118) (Homo sapiens, UniProt Q00987); assay: Fluorescence polarization; conditions: fluorescence polarization assay; qualitative statement
[4] = Stability of compound in solution; format: physicochemical; conditions: while in solution

For `COc1ccc(C2=N[C@@H](c3ccc(Cl)cc3)[C@@H](c3ccc(Cl)cc3)N2C(=O)N2CCNC(=O)C2)c(OC(C)C)c1` [Nutlin-3a], the “Induction of MDM2 and p21 expression” value [1] was “potent induction of MDM2 and p21”.

With `CC(C)(C)NC(=O)[C@H](c1c(C(=O)O)[nH]c2cc(Cl)ccc12)N(C=O)Cc1ccc(OCc2ccccc2Br)cc1` [(−)-6m] the Induction of apoptosis [2] was “induced apoptosis in p53-wild-type HCT 116 cells, comparable to nutlin-3a”.

For `Cn1c(C(=O)O)c(C(C(=O)NC(C)(C)C)N(C=O)Cc2ccc(OCc3ccccc3Br)cc2)c2ccc(Cl)cc21` (stereo not shown) [compound 9, 3-(1-(N-(4-((2-bromobenzyl)oxy)benzyl)formamido)-2-(tert-butylamino)-2-oxoethyl)-6-chloro-1-methyl-1H-indole-2-carboxylic acid], the “MDM2 binding activity in words” value [3] was “total loss of activity”.

For `CC(C)(C)NC(=O)C(c1ccc(Cl)cc1)N(C=O)Cc1ccc(OCc2ccc(Cl)c(Cl)c2)cc1` (stereo not shown) [compound 10, N-(tert-butyl)-2-(4-chlorophenyl)-2-(N-(4-((3,4-dichlorobenzyl)oxy)benzyl) formamido)acetamide], the “MDM2 binding activity in words” value [3] was “no binding”.

In the case of `O=CN(Cc1ccc(OCc2ccc(F)cc2)cc1)C(C(=O)NC12CC3CC(CC(C3)C1)C2)c1c(C(=O)O)[nH]c2cc(Cl)ccc12` (stereo not shown) [compound 17, 3-(2-((3s,5s,7s)-adamantan-1-ylamino)-1-(N-(4-((4-fluorobenzyl)oxy)benzyl)formamido)-2-oxoethyl)-6-chloro-1H-indole-2-carboxylic acid], the “MDM2 binding activity in words” value [3] is reported as “almost in loss of activity”.

In the case of `CC(C)(C)NC(=O)C(c1cccc(Cl)c1)N(C=O)Cc1ccc(Cl)cc1` (stereo not shown) [compound 11, N-(tert-butyl)-2-(N-(4-chlorobenzyl)formamido)-2-(3-chlorophenyl)acetamide], the “MDM2 binding activity in words” value [3] is reported as “no binding”.

With `CC(C)(C)NC(=O)C(c1c(C(=O)O)[nH]c2cc(Cl)ccc12)N(C=O)Cc1ccc(NCc2ccc(Br)cc2)cc1` (stereo not shown) [compound 8, 3-(2-(tert-butylamino)-1-(N-(4-((4-bromobenzyl)amino)benzyl)formamido)-2-oxoethyl)-6-chloro-1H-indole-2-carboxylic acid] the Stability in solution [4] was “susceptible to degradation”.
